ChEMBL document CHEMBL2331098, “Unprecedented polyketides from a marine sponge-associated Stachylidium sp” (J Nat Prod, 2013)
Calls of active or inactive are those of the source.

Legend:
[1] = test system: SF-268; experiment: Cytotoxicity against human SF268 cells at 100 uM; format: functional, cell-based
[2] = test system: MCF7; experiment: Cytotoxicity against human MCF7 cells at 100 uM; format: functional, cell-based
[3] = test system: NCI-H460; experiment: Cytotoxicity against human NCI-H460 cells at 100 uM; format: functional, cell-based
[4] = test system: Adipocyte; experiment: Induction of glucose uptake in mouse primary adipocyte cells at 100 uM; format: functional, cell-based
[5] = test system: 3T3-L1; experiment: Induction of glucose uptake in mouse 3T3L1 cells at 100 uM; format: functional, cell-based
[6] = target: Tyrosine-protein phosphatase non-receptor type 1 (Homo sapiens) (UniProt P18031); experiment: Inhibition of PTP1B (unknown origin)
[7] = target: T1, Peroxisome proliferator-activated receptor (Homo sapiens) (UniProt P37231+Q07869+Q03181); experiment: Activity at PPAR (unknown origin) by PPAR co-activator assay; format: protein assay
[8] = target: T1, Peroxisome proliferator-activated receptor (Homo sapiens); experiment: Activity at PPAR (unknown origin) by PPAR ligand assay; format: protein assay
[9] = species on record: Homo sapiens; experiment: Inhibition of NF-kappaB protein complex (unknown origin) at 100 uM
[10] = test system: [Chlorella] fusca; experiment: Antimicrobial activity against Chlorella fusca; format: functional, organism-based; settings: Scenedesmus fuscus
[11] = test system: Microbotryum violaceum; experiment: Antimicrobial activity against Microbotryum violaceum; format: functional, organism-based
[12] = test system: Aspergillus ruber; experiment: Antimicrobial activity against Eurotium rubrum; format: functional, organism-based
[13] = test system: Mycotypha microspora; experiment: Antimicrobial activity against Mycotypha microspora; format: functional, organism-based
[14] = test system: Priestia megaterium; experiment: Antimicrobial activity against Bacillus megaterium; format: functional, organism-based
[15] = test system: Escherichia coli; experiment: Antimicrobial activity against Escherichia coli; format: functional, organism-based
[16] = test system: Adipocyte; experiment: Induction of glucose uptake in rat primary adipocyte cells at 100 uM; format: functional, cell-based
[17] = species on record: Homo sapiens; experiment: Displacement of [3H]DTG from sigma2 receptor (unknown origin) at 10 uM
[18] = target: Sigma non-opioid intracellular receptor 1 (Homo sapiens) (UniProt Q99720); experiment: Displacement of [3H]pentazocine from sigma1 receptor (unknown origin) at 10 uM
[19] = target: Sodium-dependent serotonin transporter (Homo sapiens) (UniProt P31645); experiment: Displacement of [3H]citalopram from SERT (unknown origin) at 10 uM
[20] = target: Muscarinic acetylcholine receptor M5 (Homo sapiens) (UniProt P08912); experiment: Displacement of [3H]QNB from M5 receptor (unknown origin) at 10 uM
[21] = target: Muscarinic acetylcholine receptor M4 (Homo sapiens) (UniProt P08173); experiment: Displacement of [3H]QNB from M4 receptor (unknown origin) at 10 uM
[22] = target: Muscarinic acetylcholine receptor M3 (Homo sapiens) (UniProt P20309); experiment: Displacement of [3H]QNB from M3 receptor (unknown origin) at 10 uM
[23] = target: Muscarinic acetylcholine receptor M2 (Homo sapiens) (UniProt P08172); experiment: Displacement of [3H]QNB from M2 receptor (unknown origin) at 10 uM
[24] = target: Muscarinic acetylcholine receptor M1 (Homo sapiens) (UniProt P11229); experiment: Displacement of [3H]QNB from M1 receptor (unknown origin) at 10 uM
[25] = target: Histamine H4 receptor (Homo sapiens) (UniProt Q9H3N8); experiment: Displacement of [3H]histamine from H4 receptor (unknown origin) at 10 uM
[26] = target: Histamine H3 receptor (Homo sapiens) (UniProt Q9Y5N1); experiment: Displacement of [3H]alpha-methylhistamine from H3 receptor (unknown origin) at 10 uM
[27] = target: Histamine H2 receptor (Homo sapiens) (UniProt P25021); experiment: Displacement of [3H]tiotidine from H2 receptor (unknown origin) at 10 uM
[28] = target: Histamine H1 receptor (Homo sapiens) (UniProt P35367); experiment: Displacement of [3H]pyrilamine from H1 receptor (unknown origin) at 10 uM
[29] = target: Mu-type opioid receptor (Homo sapiens) (UniProt P35372); experiment: Displacement of [3H]DAMGO from mu opioid receptor (unknown origin) at 10 uM
[30] = target: GABA-A receptor; agonist GABA site (Homo sapiens) (UniProt P14867+P47870+P28472+P48169+P34903+P18505+P47869+P31644+Q16445); experiment: Displacement of [3H]muscimol from GABAA receptor (unknown origin) at 10 uM; format: protein-complex assay
[31] = target: Kappa-type opioid receptor (Homo sapiens) (UniProt P41145); experiment: Displacement of [3H]U69593 from kappa opioid receptor (unknown origin) at 10 uM
[32] = target: Delta-type opioid receptor (Homo sapiens) (UniProt P41143); experiment: Displacement of [3H]DADLE from delta opioid receptor (unknown origin) at 10 uM
[33] = target: Sodium-dependent dopamine transporter (Homo sapiens) (UniProt Q01959); experiment: Displacement of [3H]WIN35428 from DAT (unknown origin) at 10 uM
[34] = target: D(1B) dopamine receptor (Homo sapiens) (UniProt P21918); experiment: Displacement of [3H][…] from D5 receptor (unknown origin) at 10 uM
[35] = target: D(4) dopamine receptor (Homo sapiens) (UniProt P21917); experiment: Displacement of [3H]N-methylspiperone from D4 receptor (unknown origin) at 10 uM
[36] = target: D(3) dopamine receptor (Homo sapiens) (UniProt P35462); experiment: Displacement of [3H]N-methylspiperone from D3 receptor (unknown origin) at 10 uM
[37] = target: D(2) dopamine receptor (Homo sapiens) (UniProt P14416); experiment: Displacement of [3H]N-methylspiperone from D2 receptor (unknown origin) at 10 uM
[38] = target: D(1A) dopamine receptor (Homo sapiens) (UniProt P21728); experiment: Displacement of [3H][…] from D1 receptor (unknown origin) at 10 uM
[39] = species on record: Rattus norvegicus; experiment: Displacement of [3H]flunitrazepam from rat brain BZP receptor (unknown origin) at 10 uM
[40] = target: Beta-3 adrenergic receptor (Homo sapiens) (UniProt P13945); experiment: Displacement of [125I]iodopindolol from beta3 receptor (unknown origin) at 10 uM
[41] = target: Beta-2 adrenergic receptor (Homo sapiens) (UniProt P07550); experiment: Displacement of [125I]iodopindolol from beta2 receptor (unknown origin) at 10 uM
[42] = target: Beta-1 adrenergic receptor (Homo sapiens) (UniProt P08588); experiment: Displacement of [125I]iodopindolol from beta1 receptor (unknown origin) at 10 uM
[43] = target: Alpha-2C adrenergic receptor (Homo sapiens) (UniProt P18825); experiment: Displacement of [3H]clonidine from alpha2C receptor (unknown origin) at 10 uM
[44] = target: Alpha-2A adrenergic receptor (Homo sapiens) (UniProt P08913); experiment: Displacement of [3H]clonidine from alpha2A receptor (unknown origin) at 10 uM
[45] = target: Alpha-2B adrenergic receptor (Homo sapiens) (UniProt P18089); experiment: Displacement of [3H]clonidine from alpha2B receptor (unknown origin) at 10 uM
[46] = target: Alpha-1D adrenergic receptor (Homo sapiens) (UniProt P25100); experiment: Displacement of radiolabeled ligand from alpha1D receptor (unknown origin) at 10 uM
[47] = target: Alpha-1B adrenergic receptor (Homo sapiens) (UniProt P35368); experiment: Displacement of [3H]prazosin from alpha1B receptor (unknown origin) at 10 uM
[48] = target: Alpha-1A adrenergic receptor (Homo sapiens) (UniProt P35348); experiment: Displacement of [3H]prazosin from alpha1A receptor (unknown origin) at 10 uM
[49] = target: 5-hydroxytryptamine receptor 6 (Homo sapiens) (UniProt P50406); experiment: Displacement of [3H]LSD from 5-HT6 receptor (unknown origin) at 10 uM
[50] = target: 5-hydroxytryptamine receptor 7 (Homo sapiens) (UniProt P34969); experiment: Displacement of [3H]LSD from 5-HT7 receptor (unknown origin) at 10 uM
[51] = target: 5-hydroxytryptamine receptor 5A (Homo sapiens) (UniProt P47898); experiment: Displacement of [3H]LSD from 5-HT5A receptor (unknown origin) at 10 uM
[52] = target: 5-hydroxytryptamine receptor 3A (Homo sapiens) (UniProt P46098); experiment: Displacement of [3H]LY278584 from 5-HT3 receptor (unknown origin) at 10 uM
[53] = target: 5-hydroxytryptamine receptor 2C (Homo sapiens) (UniProt P28335); experiment: Displacement of [3H]mesulergine from 5-HT2C receptor (unknown origin) at 10 uM
[54] = target: 5-hydroxytryptamine receptor 2B (Homo sapiens) (UniProt P41595); experiment: Displacement of [3H]LSD from 5-HT2B receptor (unknown origin) at 10 uM
[55] = target: 5-hydroxytryptamine receptor 1E (Homo sapiens) (UniProt P28566); experiment: Displacement of [3H]5-HT from 5-HT1E receptor (unknown origin) at 10 uM
[56] = target: 5-hydroxytryptamine receptor 2A (Homo sapiens) (UniProt P28223); experiment: Displacement of [3H]ketanserin from 5-HT2A receptor (unknown origin) at 10 uM
[57] = target: 5-hydroxytryptamine receptor 1D (Homo sapiens) (UniProt P28221); experiment: Displacement of [3H][…] from 5-HT1D receptor (unknown origin) at 10 uM
[58] = target: 5-hydroxytryptamine receptor 1B (Homo sapiens) (UniProt P28222); experiment: Displacement of [3H][…] from 5-HT1B receptor (unknown origin) at 10 uM
[59] = target: 5-hydroxytryptamine receptor 1A (Homo sapiens) (UniProt P08908); experiment: Displacement of [3H]8-OH-DPAT from 5-HT1A receptor (unknown origin) at 10 uM
[60] = target: Sodium-dependent noradrenaline transporter (Homo sapiens) (UniProt P23975); experiment: Displacement of [3H]nisoxetine from NET (unknown origin) at 10 uM

Sequence of Tyrosine-protein phosphatase non-receptor type 1 (Homo sapiens) (P18031 whole entry): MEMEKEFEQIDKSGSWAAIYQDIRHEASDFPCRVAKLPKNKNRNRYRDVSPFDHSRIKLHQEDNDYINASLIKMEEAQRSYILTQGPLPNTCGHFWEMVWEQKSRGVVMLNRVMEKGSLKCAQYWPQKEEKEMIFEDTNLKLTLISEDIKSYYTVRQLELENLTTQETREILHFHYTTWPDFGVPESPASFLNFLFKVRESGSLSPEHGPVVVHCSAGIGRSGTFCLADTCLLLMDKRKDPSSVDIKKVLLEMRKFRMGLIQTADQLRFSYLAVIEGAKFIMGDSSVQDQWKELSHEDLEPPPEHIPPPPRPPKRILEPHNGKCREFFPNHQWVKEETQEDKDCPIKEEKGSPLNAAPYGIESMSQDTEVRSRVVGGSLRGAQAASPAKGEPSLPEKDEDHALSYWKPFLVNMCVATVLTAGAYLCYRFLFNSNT
Sequence of Sodium-dependent serotonin transporter (Homo sapiens) (P31645 whole entry, looked up): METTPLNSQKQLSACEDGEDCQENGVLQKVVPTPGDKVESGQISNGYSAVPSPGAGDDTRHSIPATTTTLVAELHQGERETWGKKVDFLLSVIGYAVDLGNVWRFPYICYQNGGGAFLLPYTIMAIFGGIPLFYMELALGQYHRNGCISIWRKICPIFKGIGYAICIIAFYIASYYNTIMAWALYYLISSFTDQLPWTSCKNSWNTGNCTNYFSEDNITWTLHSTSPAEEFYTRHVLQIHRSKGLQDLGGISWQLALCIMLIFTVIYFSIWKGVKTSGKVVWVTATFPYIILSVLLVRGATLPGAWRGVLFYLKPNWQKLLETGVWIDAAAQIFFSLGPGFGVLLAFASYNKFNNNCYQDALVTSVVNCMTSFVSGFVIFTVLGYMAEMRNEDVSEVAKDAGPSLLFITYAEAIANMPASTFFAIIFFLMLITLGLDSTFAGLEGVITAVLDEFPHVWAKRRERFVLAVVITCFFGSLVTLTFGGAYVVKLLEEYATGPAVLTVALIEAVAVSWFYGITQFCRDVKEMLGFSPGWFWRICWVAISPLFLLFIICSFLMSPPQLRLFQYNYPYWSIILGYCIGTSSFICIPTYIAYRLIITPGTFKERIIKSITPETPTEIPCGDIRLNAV
Sequence of Histamine H1 receptor (Homo sapiens) (P35367 whole entry): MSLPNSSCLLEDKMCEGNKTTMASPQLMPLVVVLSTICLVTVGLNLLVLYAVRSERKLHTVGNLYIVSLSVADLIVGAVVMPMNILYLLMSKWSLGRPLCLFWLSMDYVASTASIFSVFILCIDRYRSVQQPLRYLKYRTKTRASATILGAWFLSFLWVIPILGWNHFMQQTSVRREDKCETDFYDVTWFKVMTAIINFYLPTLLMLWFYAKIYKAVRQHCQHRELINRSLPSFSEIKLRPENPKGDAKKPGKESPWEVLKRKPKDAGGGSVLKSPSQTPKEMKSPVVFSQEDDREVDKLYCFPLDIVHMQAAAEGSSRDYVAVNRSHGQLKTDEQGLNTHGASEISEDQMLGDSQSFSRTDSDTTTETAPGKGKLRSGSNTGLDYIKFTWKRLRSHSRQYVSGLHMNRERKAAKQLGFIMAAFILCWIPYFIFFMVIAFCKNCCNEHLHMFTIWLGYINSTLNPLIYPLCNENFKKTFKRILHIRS
Sequence of 5-hydroxytryptamine receptor 1D (Homo sapiens) (P28221 whole entry): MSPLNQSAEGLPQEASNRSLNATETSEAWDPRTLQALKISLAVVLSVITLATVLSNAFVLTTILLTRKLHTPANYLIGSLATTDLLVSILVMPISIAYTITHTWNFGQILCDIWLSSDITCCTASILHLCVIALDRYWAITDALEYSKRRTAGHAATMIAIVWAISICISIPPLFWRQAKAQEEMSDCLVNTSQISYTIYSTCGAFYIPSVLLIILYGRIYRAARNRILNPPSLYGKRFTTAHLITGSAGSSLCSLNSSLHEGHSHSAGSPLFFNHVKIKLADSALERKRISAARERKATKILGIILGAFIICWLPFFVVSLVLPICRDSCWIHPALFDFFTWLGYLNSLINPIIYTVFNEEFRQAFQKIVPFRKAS
Sequence of 5-hydroxytryptamine receptor 5A (Homo sapiens) (P47898 whole entry): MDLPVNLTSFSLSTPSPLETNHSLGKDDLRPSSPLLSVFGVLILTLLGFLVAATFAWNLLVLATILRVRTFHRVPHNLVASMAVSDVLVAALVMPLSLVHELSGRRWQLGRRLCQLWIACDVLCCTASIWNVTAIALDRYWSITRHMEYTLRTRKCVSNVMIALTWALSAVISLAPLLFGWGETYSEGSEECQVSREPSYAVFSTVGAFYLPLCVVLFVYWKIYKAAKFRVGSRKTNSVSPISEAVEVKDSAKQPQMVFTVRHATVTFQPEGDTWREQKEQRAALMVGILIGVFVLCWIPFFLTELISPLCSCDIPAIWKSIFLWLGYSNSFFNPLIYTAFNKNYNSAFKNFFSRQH
Sequence of Kappa-type opioid receptor (Homo sapiens) (P41145 whole entry): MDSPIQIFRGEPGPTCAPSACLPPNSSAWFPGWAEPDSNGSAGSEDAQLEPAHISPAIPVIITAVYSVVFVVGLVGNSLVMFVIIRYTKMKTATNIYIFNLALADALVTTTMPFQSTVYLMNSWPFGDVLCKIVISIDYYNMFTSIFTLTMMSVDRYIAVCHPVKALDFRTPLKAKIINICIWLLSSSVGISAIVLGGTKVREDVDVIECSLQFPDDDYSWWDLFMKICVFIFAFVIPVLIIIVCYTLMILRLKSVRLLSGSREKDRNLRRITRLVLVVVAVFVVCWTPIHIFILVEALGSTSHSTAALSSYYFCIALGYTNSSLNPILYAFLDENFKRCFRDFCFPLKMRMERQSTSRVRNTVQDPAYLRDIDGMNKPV
Sequence of 5-hydroxytryptamine receptor 2B (Homo sapiens) (P41595 whole entry): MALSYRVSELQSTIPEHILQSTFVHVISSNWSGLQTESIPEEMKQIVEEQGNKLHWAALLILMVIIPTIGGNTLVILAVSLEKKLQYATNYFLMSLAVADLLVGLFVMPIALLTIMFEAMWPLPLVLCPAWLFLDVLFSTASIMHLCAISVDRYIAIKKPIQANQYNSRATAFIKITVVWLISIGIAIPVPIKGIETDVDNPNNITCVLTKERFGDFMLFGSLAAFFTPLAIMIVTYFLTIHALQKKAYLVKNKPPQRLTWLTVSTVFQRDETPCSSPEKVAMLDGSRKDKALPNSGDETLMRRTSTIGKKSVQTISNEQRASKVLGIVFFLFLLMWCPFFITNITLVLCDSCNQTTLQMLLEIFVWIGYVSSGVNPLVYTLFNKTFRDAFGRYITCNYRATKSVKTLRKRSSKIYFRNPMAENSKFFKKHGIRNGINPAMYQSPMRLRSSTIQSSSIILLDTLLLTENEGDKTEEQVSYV
Sequence of Beta-1 adrenergic receptor (Homo sapiens) (P08588 whole entry, looked up): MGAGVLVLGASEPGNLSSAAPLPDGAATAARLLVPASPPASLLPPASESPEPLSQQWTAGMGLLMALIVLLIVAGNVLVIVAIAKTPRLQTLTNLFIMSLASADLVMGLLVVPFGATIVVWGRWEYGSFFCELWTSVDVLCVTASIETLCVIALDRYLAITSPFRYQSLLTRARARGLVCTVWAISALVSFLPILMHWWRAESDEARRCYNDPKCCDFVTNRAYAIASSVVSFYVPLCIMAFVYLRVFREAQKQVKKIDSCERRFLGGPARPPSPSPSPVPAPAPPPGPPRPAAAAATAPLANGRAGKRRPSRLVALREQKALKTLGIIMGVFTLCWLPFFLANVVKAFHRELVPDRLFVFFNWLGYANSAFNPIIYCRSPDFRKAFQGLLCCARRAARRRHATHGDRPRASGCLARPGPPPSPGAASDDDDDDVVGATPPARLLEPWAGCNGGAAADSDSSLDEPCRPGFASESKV
Sequence of Alpha-1A adrenergic receptor (Homo sapiens) (P35348 whole entry): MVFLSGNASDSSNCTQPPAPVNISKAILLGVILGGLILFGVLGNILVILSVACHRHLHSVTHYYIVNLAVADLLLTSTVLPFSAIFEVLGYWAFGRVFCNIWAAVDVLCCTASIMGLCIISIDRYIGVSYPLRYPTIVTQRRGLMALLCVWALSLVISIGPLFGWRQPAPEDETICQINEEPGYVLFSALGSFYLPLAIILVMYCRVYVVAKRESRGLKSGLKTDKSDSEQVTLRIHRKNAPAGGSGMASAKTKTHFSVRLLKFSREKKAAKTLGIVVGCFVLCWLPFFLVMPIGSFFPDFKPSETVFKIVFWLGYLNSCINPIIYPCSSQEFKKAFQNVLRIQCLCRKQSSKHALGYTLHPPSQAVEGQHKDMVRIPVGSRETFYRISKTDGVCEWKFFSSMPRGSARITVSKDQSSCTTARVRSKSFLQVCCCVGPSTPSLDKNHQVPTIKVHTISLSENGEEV
Sequence of D(4) dopamine receptor (Homo sapiens) (P21917 whole entry): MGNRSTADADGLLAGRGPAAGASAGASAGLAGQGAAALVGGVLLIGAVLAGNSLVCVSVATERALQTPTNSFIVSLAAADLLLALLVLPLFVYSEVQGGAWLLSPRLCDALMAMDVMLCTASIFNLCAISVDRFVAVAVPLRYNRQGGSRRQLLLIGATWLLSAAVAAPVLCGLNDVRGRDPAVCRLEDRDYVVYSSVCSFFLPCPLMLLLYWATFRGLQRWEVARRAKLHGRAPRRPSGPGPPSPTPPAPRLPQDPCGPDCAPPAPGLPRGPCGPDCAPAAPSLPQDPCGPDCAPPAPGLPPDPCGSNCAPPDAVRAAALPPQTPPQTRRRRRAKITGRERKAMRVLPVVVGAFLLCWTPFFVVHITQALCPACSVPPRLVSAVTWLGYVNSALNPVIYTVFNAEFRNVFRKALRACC
Sequence of Histamine H4 receptor (Homo sapiens) (Q9H3N8 whole entry): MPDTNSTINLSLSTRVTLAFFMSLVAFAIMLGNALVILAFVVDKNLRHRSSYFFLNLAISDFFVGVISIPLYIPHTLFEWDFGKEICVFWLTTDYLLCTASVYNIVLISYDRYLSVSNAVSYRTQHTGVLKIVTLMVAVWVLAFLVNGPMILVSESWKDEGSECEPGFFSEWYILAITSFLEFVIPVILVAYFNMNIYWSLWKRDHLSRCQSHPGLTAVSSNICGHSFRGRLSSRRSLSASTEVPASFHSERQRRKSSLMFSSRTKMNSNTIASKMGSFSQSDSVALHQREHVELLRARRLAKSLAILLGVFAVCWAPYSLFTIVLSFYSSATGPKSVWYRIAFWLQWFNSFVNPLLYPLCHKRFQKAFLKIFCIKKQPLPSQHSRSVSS

COc1c(C)c(O)cc2c1C(O)CC2=O (configuration not stated)
inactive: Activity [1] | Activity [2] | Activity [3] | inhibition [4] | inhibition [5] | inhibition [6] | Activity [7] | Activity [8] | Activity [9] | Activity [10] | Activity [11] | Activity [12] | Activity [13] | Activity [14] | Activity [15] | inhibition [16]

CCc1cc(O)c(C)c(=O)o1
inactive: inhibition [4] | inhibition [5] | inhibition [6] | Activity [7] | Activity [8] | Activity [10] | Activity [11] | Activity [12] | Activity [13] | Activity [14] | Activity [15] | inhibition [16]

COCc1c(CO)cc(O)c(C)c1OC
inactive: Activity [10] | Activity [11] | Activity [12] | Activity [13] | Activity [14] | Activity [15]

COc1c(C)c(OC/C=C(\C)CCC=C(C)C)cc2c1[C@H](OC)O[C@]2(C)OC
inactive: Activity [9] | Activity [10] | Activity [11] | Activity [12] | Activity [13] | Activity [14] | Activity [15]

COCc1c(C(C)O)cc(O)c(C)c1OC (configuration not stated)
inactive: inhibition [17] | inhibition [18] | inhibition [19] | inhibition [20] | inhibition [21] | inhibition [22] | inhibition [23] | inhibition [24] | inhibition [25] | inhibition [26] | inhibition [27] | inhibition [28] | inhibition [29] | inhibition [30] | inhibition [31] | inhibition [32] | inhibition [33] | inhibition [34] | inhibition [35] | inhibition [36] | inhibition [37] | inhibition [38] | inhibition [39] | inhibition [40] | inhibition [41] | inhibition [42] | inhibition [43] | inhibition [44] | inhibition [45] | inhibition [46] | inhibition [47] | inhibition [48] | inhibition [49] | inhibition [50] | inhibition [51] | inhibition [52] | inhibition [53] | inhibition [54] | inhibition [55] | inhibition [56] | inhibition [57] | inhibition [58] | inhibition [59] | Activity [10] | Activity [11] | Activity [12] | Activity [13] | Activity [14] | Activity [15] | inhibition [60]

CCc1cc(O)c(C)c(OC)c1CC(C)C(=O)CC(O)CC (configuration not stated)
inactive: Activity [10] | Activity [11] | Activity [12] | Activity [13] | Activity [14] | Activity [15]

COc1c(C)c(OC/C=C(\C)CCC=C(C)C)cc2c1[C@H](OC)O[C@@]2(C)OC
inactive: Activity [1] | Activity [2] | Activity [3] | Activity [9] | Activity [10] | Activity [11] | Activity [12] | Activity [13] | Activity [14] | Activity [15]
